The source of these data is patent US20230365592A1 (Agios Pharmaceuticals, Inc., priority 2022, published 2023).

SMILES strings stand for the structures.

In the first assay the target is T1, human PAH with the R408W mutation (Homo sapiens, UniProt P00439, R408W).
T1 construct: expressed in transfected cells
T1 sequence (P00439 1-452 R408W): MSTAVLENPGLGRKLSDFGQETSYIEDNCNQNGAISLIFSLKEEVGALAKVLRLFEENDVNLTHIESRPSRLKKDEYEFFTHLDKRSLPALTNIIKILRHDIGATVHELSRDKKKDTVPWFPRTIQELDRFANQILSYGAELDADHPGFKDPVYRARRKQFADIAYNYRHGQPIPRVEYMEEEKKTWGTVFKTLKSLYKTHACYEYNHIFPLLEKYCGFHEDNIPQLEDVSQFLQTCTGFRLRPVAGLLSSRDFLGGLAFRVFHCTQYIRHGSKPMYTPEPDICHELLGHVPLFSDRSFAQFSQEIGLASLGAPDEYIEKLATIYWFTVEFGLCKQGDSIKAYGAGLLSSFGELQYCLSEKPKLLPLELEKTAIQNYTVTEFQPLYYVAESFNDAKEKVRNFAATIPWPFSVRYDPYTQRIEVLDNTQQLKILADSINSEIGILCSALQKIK
Briefly: Cell Based Phenylalanine Flux Assay.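 Note: after compound treatment, cells received sepiapterin plus isotope-labelled Phenylalanine for 4 hours, then labelled Tyrosine in the medium was quantified, 10-point 2-fold dilution series run in duplicate.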 The conditions noted are these: A375 cells expressing R408W PAH; 24 hrs with compound, then 20 µM sepiapterin and 800 µM 13C9,15N-Phenylalanine for 4 hours; 13C-Tyrosine by LC-MS; average where tested multiple times; read-out: AC50.
Broadly, the AC50 is the midpoint of the concentration-response curve, whichever way the signal moves. In the case of `Nc1cnc(N2CCc3[nH]cnc3C2c2cc3ccccn3n2)nc1` (centres unmarked), the AC50 is greater than 5 µM.

As for `O=C(c1nnc(-c2cn[nH]c2)o1)N1CCc2[nH]cnc2[C@H]1c1cc2c(F)cccn2n1` (single isomer, unassigned), the AC50 lay within 1 to 5 µM.

With `O=C(c1cnn2cc(N3CCOCC3)ccc12)N1CCc2[nH]cnc2C1c1cc2c(F)cccn2n1` (centres unmarked), the AC50 fell in the range of 1 to 5 µM.

With `Cc1c(C2c3nc[nH]c3CCN2C(=O)c2cnco2)nn2ccccc12` (centres unmarked), the AC50 fell in the range of 1 to 5 µM.

On to `COCc1ncc(C(=O)N2CCc3[nH]cnc3C2c2cc3ccccn3n2)s1` (centres unmarked), for which the AC50 was greater than 5 µM.

For `O=C(c1cnc(-c2ccccn2)o1)N1CCc2[nH]cnc2C1c1cc2ccccn2n1` (centres unmarked), the AC50 is greater than 5 µM.

For `COCc1ccc2c(C(=O)N3CCc4[nH]cnc4C3c3cc4cccc(C)n4n3)cnn2c1` (centres unmarked), the AC50 was in the range of 1 to 5 µM.

With `Cc1cccc2cc([C@H]3c4nc[nH]c4CCN3C(=O)c3cnn4cc(C5CC5)ccc34)nn12` (single isomer, unassigned), the AC50 is greater than 5 µM.

The assay is the same for the next values; noted with them: A375 cells expressing human PAH R408W; 24 hrs compound incubation; 13C-Tyrosine by LC-MS; average where tested multiple times; read-out: AC50.
With `CCc1cccn2nc([C@H]3c4nc[nH]c4CCN3C(=O)c3nnc(-c4cnn(C)c4)o3)cc12` [Example 1925, (R)-(4-(4-ethylpyrazolo[1,5-a]pyridin-2-yl)-1,4,6,7-tetrahydro-5H-imidazo[4,5-c]pyridin-5-yl)(5-(1-methyl-1H-pyrazol-4-yl)-1,3,4-oxadiazol-2-yl)methanone], the AC50 was greater than 5 µM.

As to `FC(F)c1cccn2nc([C@H]3c4nc[nH]c4CCN3c3ccc(C(F)(F)F)cn3)cc12` [Example 1917, (R)-4-(4-(difluoromethyl)pyrazolo[1,5-a]pyridin-2-yl)-5-(5-(trifluoromethyl)pyridin-2-yl)-4,5,6,7-tetrahydro-1H-imidazo[4,5-c]pyridine], the AC50 is greater than 5 µM.

As for `Fc1ccc(-c2nnc(N3CCc4[nH]cnc4[C@H]3c3cc4cccc(Cl)n4n3)o2)cc1` [Example 2086, (S)-2-(4-(7-chloropyrazolo[1,5-a]pyridin-2-yl)-1,4,6,7-tetrahydro-5H-imidazo[4,5-c]pyridin-5-yl)-5-(4-fluorophenyl)-1,3,4-oxadiazole], the AC50 was less than 0.5 µM.

In the case of `O=C(c1nc2ccccc2s1)N1CCc2[nH]cnc2[C@H]1c1cc2ccccn2n1` [Example 2000, (S)-benzo[d]thiazol-2-yl(4-(pyrazolo[1,5-a]pyridin-2-yl)-1,4,6,7-tetrahydro-5H-imidazo[4,5-c]pyridin-5-yl)methanone], the AC50 lay within 1 to 5 µM.

Consider `Cc1cccnc1-c1nnc(N2CCc3[nH]cnc3[C@@H]2c2cc3c(C(F)F)cccn3n2)o1` [Example 2278, (R)-2-(4-(4-(difluoromethyl)pyrazolo[1,5-a]pyridin-2-yl)-1,4,6,7-tetrahydro-5H-imidazo[4,5-c]pyridin-5-yl)-5-(3-methylpyridin-2-yl)-1,3,4-oxadiazole], for which the AC50 is greater than 5 µM.

The same assay, now with this note: A375 cells expressing human R408W PAH; 24 hrs compound incubation; 13C-Tyrosine by LC-MS; average where tested multiple times; read-out: AC50.
Turning to `O=C(c1ocnc1C(F)F)N1CCc2[nH]cnc2[C@H]1c1cc2c(F)cccn2n1` [Example 758, (S)-(4-(difluoromethyl)oxazol-5-yl)(4-(4-fluoropyrazolo[1,5-a]pyridin-2-yl)-6,7-dihydro-1H-imidazo[4,5-c]pyridin-5(4H)-yl)methanone], the AC50 was less than 0.5 µM.

As to `CC(C)(O)c1nc(C(F)(F)F)c(C(=O)N2CCc3[nH]cnc3[C@H]2c2cc3ccccn3n2)o1` [Example 628, (S)-(2-(2-hydroxypropan-2-yl)-4-(trifluoromethyl)oxazol-5-yl)(4-(pyrazolo[1,5-a]pyridin-2-yl)-6,7-dihydro-1H-imidazo[4,5-c)pyridin-5(4H)-yl)methanone], the AC50 is less than 0.5 µM.

`Cc1nc(C(=O)N2CCc3[nH]cnc3[C@H]2c2cc3c(C)cccn3n2)n(C)n1` [Example 916, (S)-(1,3-dimethyl-1H-1,2,4-triazol-5-yl)(4-(4-methylpyrazolo[1,5-a]pyridin-2-yl)-6,7-dihydro-1H-imidazo[4,5-c]pyridin-5(4H)-yl)methanone]: the AC50 is less than 0.5 µM.

In the case of `O=C(c1nnc(C2CC2)o1)N1CCc2[nH]cnc2[C@@H]1c1cc2c(C(F)(F)F)cccn2n1` [Example 943, (R)-(5-cyclopropyl-1,3,4-oxadiazol-2-yl)(4-(4-(trifluoromethyl)pyrazolo[1,5-a]pyridin-2-yl)-6,7-dihydro-1H-imidazo[4,5-c]pyridin-5(4H)-yl)methanone], the AC50 is greater than 5 µM.

Consider `O=C(c1nnc(-c2cnn(C3CCC3)c2)o1)N1CCc2[nH]cnc2[C@H]1c1cc2c(F)cccn2n1` [Example 832, (S)-(5-(1-cyclobutyl-1H-pyrazol-4-yl)-1,3,4-oxadiazol-2-yl)(4-(4-fluoropyrazolo[1,5-a]pyridin-2-yl)-6,7-dihydro-1H-imidazo[4,5-c]pyridin-5(4H)-yl)methanone], for which the half-maximal activity concentration (AC50) is less than 0.5 µM.

Turning to `Cn1cc(-c2nnc(C(=O)N3CCc4[nH]cnc4[C@@H]3c3cc4cccc(C(F)F)n4n3)o2)cn1` [Example 1407, (R)-(4-(7-(difluoromethyl)pyrazolo[1,5-a]pyridin-2-yl)-6,7-dihydro-1H-imidazo[4,5-c]pyridin-5(4H)-yl)(5-(1-methyl-1H-pyrazol-4-yl)-1,3,4-oxadiazol-2-yl)methanone], the AC50 was greater than 5 µM.

Turning to `CC(C)(O)c1nc(C(F)F)c(C(=O)N2CCc3[nH]cnc3[C@H]2c2cc3c(C(F)(F)F)cccn3n2)o1` [Example 810, (S)-(4-(difluoromethyl)-2-(2-hydroxypropan-2-yl)oxazol-5-yl)(4-(4-(trifluoromethyl)pyrazolo[1,5-a]pyridin-2-yl)-6,7-dihydro-1H-imidazo[4,5-c]pyridin-5(4H)-yl)methanone], the AC50 was less than 0.5 µM.

As to `O=C(c1nnc(-c2cccnc2)o1)N1CCc2[nH]cnc2[C@@H]1c1cc2c(C(F)(F)F)cccn2n1` [Example 1303, (R)-(5-(pyridin-3-yl)-1,3,4-oxadiazol-2-yl)(4-(4-(trifluoromethyl)pyrazolo[1,5-a]pyridin-2-yl)-6,7-dihydro-1H-imidazo[4,5-c]pyridin-5(4H)-yl)methanone], the AC50 lay in the range of 1 to 5 µM.

As to `O=C(c1nnc(C2CC2)o1)N1CCc2[nH]cnc2[C@H]1c1cc2c(C(F)F)cccn2n1` [Example 980, (S)-(5-cyclopropyl-1,3,4-oxadiazol-2-yl)(4-(4-(difluoromethyl)pyrazolo[1,5-a]pyridin-2-yl)-6,7-dihydro-1H-imidazo[4,5-c]pyridin-5(4H)-yl)methanone], the AC50 is less than 0.5 µM.

As for `O=C(c1nnc(-c2ncccn2)o1)N1CCc2[nH]cnc2[C@H]1c1cc2cccc(C(F)F)n2n1` [Example 1499, (S)-(4-(7-(difluoromethyl)pyrazolo[1,5-a]pyridin-2-yl)-6,7-dihydro-1H-imidazo[4,5-c]pyridin-5(4H)-yl)(5-(pyrimidin-2-yl)-1,3,4-oxadiazol-2-yl)methanone], the AC50 was in the range of 0.5 to 1 µM.

Turning to `Cc1cccn2nc([C@@H]3c4nc[nH]c4CCN3C(=O)c3cnco3)cc12` [Example 768, (S)-(4-(4-methylpyrazolo[1,5-a]pyridin-2-yl)-6,7-dihydro-1H-imidazo[4,5-c]pyridin-5(4H)-yl)(oxazol-5-yl)methanone], the half-maximal activity concentration (AC50) is less than 0.5 µM.

As to `Cc1cccn2nc([C@H]3c4nc[nH]c4CCN3C(=O)c3oc(-c4cncn4C)nc3C(F)F)cc12` [Example 890, (R)-(4-(difluoromethyl)-2-(1-methyl-1H-imidazol-5-yl)oxazol-5-yl)(4-(4-methylpyrazolo[1,5-a]pyridin-2-yl)-6,7-dihydro-1H-imidazo[4,5-c]pyridin-5(4H)-yl)methanone], the AC50 was greater than 5 µM.

`Cc1cccc2cc([C@@H]3c4nc[nH]c4CCN3C(=O)c3nnc(C4CCC4)o3)nn12` [Example 1562, (S)-(5-cyclobutyl-1,3,4-oxadiazol-2-yl)(4-(7-methylpyrazolo[1,5-a]pyridin-2-yl)-6,7-dihydro-1H-imidazo[4,5-c]pyridin-5(4H)-yl)methanone]: the AC50 lay in the range of 0.5 to 1 µM.

Turning to `Cc1cccc2cc([C@H]3c4nc[nH]c4CCN3C(=O)c3oc(C4(O)CC4)nc3C(F)F)nn12` [Example 1281, (R)-(4-(difluoromethyl)-2-(1-hydroxycyclopropyl)oxazol-5-yl)(4-(7-methylpyrazolo[1,5-a]pyridin-2-yl)-6,7-dihydro-1H-imidazo[4,5-c]pyridin-5(4H)-yl)methanone], the AC50 lay in the range of 1 to 5 µM.

In the case of `Cc1cccn2nc([C@H]3c4nc[nH]c4CCN3C(=O)c3nnc(-c4ncccc4F)o3)cc12` [Example 818, (R)-(5-(3-fluoropyridin-2-yl)-1,3,4-oxadiazol-2-yl)(4-(4-methylpyrazolo[1,5-a]pyridin-2-yl)-6,7-dihydro-1H-imidazo[4,5-c]pyridin-5(4H)-yl)methanone], the AC50 is greater than 5 µM.

Consider `O=C(c1nnc(-c2ccn(C(F)F)n2)o1)N1CCc2[nH]cnc2[C@@H]1c1cc2c(Cl)cccn2n1` [Example 1119, (R)-(4-(4-chloropyrazolo[1,5-a]pyridin-2-yl)-6,7-dihydro-1H-imidazo[4,5-c]pyridin-5(4H)-yl)(5-(1-(difluoromethyl)-1H-pyrazol-3-yl)-1,3,4-oxadiazol-2-yl)methanone], for which the AC50 was greater than 5 µM.
